In patent US10842793B2, “Inhibitors of the unconventional secretion of fibroblast growth factor 2 (FGF2) by tumor cells and uses thereof” (Universität Heidelberg, priority 2016, dated 2020):
“Also recorded” adds a separate entry of the source.

What was measured:
[1] = molecular target: T1, GST-NΔ173 Tec (auto-phosphorylation) (Homo sapiens, UniProt P42680); experiment: In vitro Tec kinase auto-phosphorylation; format: biochemical; conditions: 50 μM compound; for effect on NΔ173 Tec auto-phosphorylation in the presence of STAP1: STAP1 present; for inhibition of Tec auto-phosphorylation in the absence of a substrate: no FGF2, FIGS. 7B and 7E
T1 construct: made in house; host or cells: SF9 insect cells (baculovirus)
T1 sequence (P42680 174-631, stated change not applied): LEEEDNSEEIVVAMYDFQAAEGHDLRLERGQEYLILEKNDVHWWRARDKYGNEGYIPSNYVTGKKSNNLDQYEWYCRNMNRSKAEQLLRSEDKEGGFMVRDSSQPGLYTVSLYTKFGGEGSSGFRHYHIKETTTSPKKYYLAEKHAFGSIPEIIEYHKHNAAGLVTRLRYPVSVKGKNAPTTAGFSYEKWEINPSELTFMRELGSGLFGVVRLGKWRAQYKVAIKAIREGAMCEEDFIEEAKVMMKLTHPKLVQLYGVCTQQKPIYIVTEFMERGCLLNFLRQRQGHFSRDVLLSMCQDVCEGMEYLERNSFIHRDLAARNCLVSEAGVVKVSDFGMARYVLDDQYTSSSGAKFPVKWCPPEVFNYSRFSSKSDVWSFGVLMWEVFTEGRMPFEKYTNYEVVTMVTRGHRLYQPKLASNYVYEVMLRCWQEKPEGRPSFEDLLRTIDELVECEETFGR
Description: FGF2 tyrosine phosphorylation and Tec kinase auto-phosphorylation were reconstituted with purified components based on a Western analysis using anti-phosphotyrosine antibodies directed against an FGF2-derived phosphopeptide. In vitro phosphorylation experiments were conducted in the absence (1% DMSO mock control) and presence of the small molecule inhibitors (#6, #14, #21; 50 μM in 1% DMSO) and control compounds (#18, #19; 50 μM in 1% DMSO) introduced in FIGS. 4 and 5. Fluorescent secondary antibodies were used to detect antigens employing the LI-COR Odyssey imaging platform. M=PageRuler Prestained Protein Ladder. For details, see Experimental Procedures.
FGF2 and STAP1 tyrosine phosphorylation as well as Tec kinase auto-phosphorylation were analyzed as described in the legend to FIG. 6 and in Experimental Procedures. In vitro phosphorylation experiments were conducted in the absence (1% DMSO mock control) and presence of the small molecule inhibitors (#6, #14, #21; 50 μM in 1% DMSO) and control compounds (#18, #19; 50 μM in 1% DMSO) introduced in FIGS. 4 and 5. A Western analysis was conducted using anti-phosphotyrosine antibodies (anti-pY-FGF2 for FGF2 and Tec as well as anti-pY-4G10 for STAP1). M=PageRuler Prestained Protein Ladder: 140, 115, 80, 65, 50, 40, 30, 25, 15, 10 kDa. Fluorescent secondary antibodies were used to detect and quantify antigens using the LI-COR Odyssey imaging platform. In panels D, E and F, following normalization based upon background signals detected in the absence of Tec kinase or ATP, the average of the signals detected under mock conditions was defined as 100% activity. Standard deviations are shown. A one-tailed and unpaired T-test was conducted to assess statistical significance (* p<0.05, ** p<0.01, *** p<0.001, **** p<0.0001). “NS” indicates absence of significant differences.
A Tec kinase in vitro phosphorylation assay was established to test the inhibitory potential and selectivity of the small molecule inhibitors reported in this study (FIGS. 6 and 7). Tyrosine phosphorylation of FGF2 and STAP1, another established substrate of Tec kinase, was tested in a final volume of 100 μl (60 mM Hepes pH 7.5, 3 mM MgCl2, 20 μM ATP, 3 μM Sodium orthovanadate, 1.2 mM DTT, 50 ng/μl PEG 20000, 0.05% w/v Tween 20, 0.001% BSA). GST-NΔ173Tec (60 nM) was incubated in the absence (1% DMSO mock control) or presence of each compound (50 μM in 1% DMSO). Where indicated, reactions contained 250 nM of either FGF2 or 250 nM STAP1 (Hölzel Diagnostika, # GWB-P0486E-100). Following incubation at 30° C. for 45 minutes (corresponding to the midpoint of linear product formation), the reaction was terminated using SDS sample buffer and boiling for 4 minutes at 95° C. […] Phosphorylation levels of GST-NΔ173 Tec (auto-phosphorylation), FGF2 and STAP1 were quantified by a Western analysis using polyclonal anti-phosphotyrosine antibodies raised against a FGF2-derived synthetic peptide containing a phosphorylated tyrosine residue (ANRpYLAMKED; SEQ ID NO: 1). […] Phosphorylation levels of STAP1 were monitored using a monoclonal anti-phosphotyrosine antibody (clone 4G10®, #05-321, Merck Millipore). Appropriate fluorescent secondary antibodies (goat anti-rabbit IgG conjugated with Alexa Fluor® 680, # A-21076, Life Technologies; goat anti-mouse IgG conjugated with Alexa Fluor® 680, # A-21057, Life Technologies) were used to quantify all antigens employing the LI-COR Odyssey infrared imaging platform. […]

[2] = Observation of compound aggregates in cell culture media; format: physicochemical; conditions: 25 and 50 μM

inhibition of Tec auto-phosphorylation in the absence of a substrate [1] | Compound | effect on NΔ173 Tec auto-phosphorylation in the presence of STAP1 [1] | solubility / aggregates of compound [2]
particularly evident | COC(=O)c1c(C)[nH]c(C(=O)OCc2cc(=O)n3c(C)cccc3n2)c1C [compound #6] | neither auto-phosphorylation of NΔ173 Tec nor tyrosine phosphorylation of STAP1 is affected | –
– | CC(=O)c1c(C)[nH]c(C(=O)OCc2cc(=O)n3cc(Br)ccc3n2)c1C [compound #14] | neither auto-phosphorylation of NΔ173 Tec nor tyrosine phosphorylation of STAP1 is affected | –
particularly evident | CC(=O)c1c(C)[nH]c(C(=O)CSc2nc3cc(Cl)cnc3[nH]2)c1C [compound #21] | neither auto-phosphorylation of NΔ173 Tec nor tyrosine phosphorylation of STAP1 is affected | aggregates of compound #21 were increasingly observable at concentrations of 25 and 50 μM; also recorded: solubility issues
